For one test, the target named is T1, ROCK2 (Homo sapiens, UniProt O75116).
T1 construct: purchased DiscoverX (KINOMEscan KdELECT service); host or cells: E. coli BL21-derived (T7 phage) or HEK-293
The experiment in a line: ROCK2 kinase binding affinity, DiscoverX KINOMEscan KdELECT. The following applies: for Kd: equilibrium dissociation constant, 11-point 3-fold dilution series, read-out: Kd (μM) ROCK2; for ROCK 2 Selectivity: ROCK2 over ROCK1, from Kd values, N/C = not calculated. The protocol: (§1) 1. ROCK1 and ROCK2 kinase assays: The ROCK1 and ROCK2 kinase binding affinities of compounds in this invention were determined by DiscoverX's KINOMEscan™ KdELECT technology (https://www.discoverx.com/kinomescan-elect-kinase-screening-and-profiling-services): Kinase-tagged T7 phage strains were prepared in an E. coli host derived from the BL21 strain. E. coli were grown to log-phase and infected with T7 phage and incubated with shaking at 32° C. until lysis. The lysates were centrifuged and filtered to remove cell debris. The remaining kinases were produced in HEK-293 cells and subsequently tagged with DNA for qPCR detection. Streptavidin-coated magnetic beads were treated with biotinylated small molecule ligands for 30 minutes at room temperature to generate affinity resins for kinase assays. The liganded beads were blocked with excess biotin and washed with blocking buffer (SeaBlock (Pierce), 1% BSA, 0.05% Tween 20, 1 mM DTT) to remove unbound ligand and to reduce nonspecific binding. […] Test compounds were prepared as 111X stocks in 100% DMSO. Kds were determined using an 11-point 3-fold compound dilution series with three DMSO control points. […] The compounds were then diluted directly into the assays such that the final concentration of DMSO was 0.9%. All reactions performed in polypropylene 384-well plate. Each was a final volume of 0.02 ml. […] The kinase concentration in the eluates was measured by qPCR.

The target in the next test is T2, ROCK1 (Homo sapiens, UniProt Q13464).
T2 construct: purchased DiscoverX (KINOMEscan KdELECT service); host or cells: E. coli BL21-derived (T7 phage) or HEK-293
The experiment in a line: ROCK1 kinase binding affinity, DiscoverX KINOMEscan KdELECT. The following applies: equilibrium dissociation constant, 11-point 3-fold dilution series. The method, then: as §1

This is an account of results in patent publication US20220281841A1, “ETHYNYLHETEROCYCLES AS RHO-ASSOCIATED COILED-COIL KINASE (ROCK) INHIBITORS” (Angion Biomedica Corp., priority 2019, published 2022).

pKd: −log10 of the molar value. Read-outs that look alike come from different tables or passages of the source. Some results are limits rather than exact numbers.

T1 sequence (O75116 whole entry): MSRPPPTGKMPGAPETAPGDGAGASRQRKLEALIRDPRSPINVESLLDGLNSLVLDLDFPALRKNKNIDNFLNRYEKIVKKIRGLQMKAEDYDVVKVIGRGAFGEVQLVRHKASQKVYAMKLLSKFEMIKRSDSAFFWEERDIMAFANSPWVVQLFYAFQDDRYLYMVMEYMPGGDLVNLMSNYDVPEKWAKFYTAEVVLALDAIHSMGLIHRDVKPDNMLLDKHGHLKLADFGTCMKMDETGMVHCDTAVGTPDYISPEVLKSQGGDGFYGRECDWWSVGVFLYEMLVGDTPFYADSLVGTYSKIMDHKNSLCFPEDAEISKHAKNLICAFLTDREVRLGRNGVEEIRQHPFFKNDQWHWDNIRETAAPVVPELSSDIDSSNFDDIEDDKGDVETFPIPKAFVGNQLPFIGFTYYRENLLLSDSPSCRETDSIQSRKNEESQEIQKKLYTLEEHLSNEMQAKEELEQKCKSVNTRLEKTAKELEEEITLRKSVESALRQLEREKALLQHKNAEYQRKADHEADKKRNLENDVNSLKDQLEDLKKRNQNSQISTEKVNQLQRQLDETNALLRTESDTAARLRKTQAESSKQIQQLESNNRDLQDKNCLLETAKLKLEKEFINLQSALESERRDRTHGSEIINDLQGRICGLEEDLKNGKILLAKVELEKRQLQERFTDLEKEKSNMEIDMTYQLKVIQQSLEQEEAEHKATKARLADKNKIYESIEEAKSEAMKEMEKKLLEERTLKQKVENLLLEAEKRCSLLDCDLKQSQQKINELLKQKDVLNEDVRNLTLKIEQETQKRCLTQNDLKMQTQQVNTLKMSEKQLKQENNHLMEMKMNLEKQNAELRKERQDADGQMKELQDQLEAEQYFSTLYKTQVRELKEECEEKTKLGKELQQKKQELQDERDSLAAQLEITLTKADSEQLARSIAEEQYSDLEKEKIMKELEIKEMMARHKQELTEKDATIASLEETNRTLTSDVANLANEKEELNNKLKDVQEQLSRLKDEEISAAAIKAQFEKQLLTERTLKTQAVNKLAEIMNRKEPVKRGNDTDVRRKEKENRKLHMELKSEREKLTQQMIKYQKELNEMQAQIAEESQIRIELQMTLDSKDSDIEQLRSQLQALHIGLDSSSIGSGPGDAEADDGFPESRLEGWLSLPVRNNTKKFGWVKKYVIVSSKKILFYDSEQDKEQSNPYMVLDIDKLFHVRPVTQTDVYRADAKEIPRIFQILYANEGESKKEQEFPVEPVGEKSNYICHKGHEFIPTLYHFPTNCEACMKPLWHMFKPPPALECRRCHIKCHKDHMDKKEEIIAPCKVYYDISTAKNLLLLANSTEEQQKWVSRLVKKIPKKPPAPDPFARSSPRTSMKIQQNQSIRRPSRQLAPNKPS
T2 sequence (Q13464 whole entry): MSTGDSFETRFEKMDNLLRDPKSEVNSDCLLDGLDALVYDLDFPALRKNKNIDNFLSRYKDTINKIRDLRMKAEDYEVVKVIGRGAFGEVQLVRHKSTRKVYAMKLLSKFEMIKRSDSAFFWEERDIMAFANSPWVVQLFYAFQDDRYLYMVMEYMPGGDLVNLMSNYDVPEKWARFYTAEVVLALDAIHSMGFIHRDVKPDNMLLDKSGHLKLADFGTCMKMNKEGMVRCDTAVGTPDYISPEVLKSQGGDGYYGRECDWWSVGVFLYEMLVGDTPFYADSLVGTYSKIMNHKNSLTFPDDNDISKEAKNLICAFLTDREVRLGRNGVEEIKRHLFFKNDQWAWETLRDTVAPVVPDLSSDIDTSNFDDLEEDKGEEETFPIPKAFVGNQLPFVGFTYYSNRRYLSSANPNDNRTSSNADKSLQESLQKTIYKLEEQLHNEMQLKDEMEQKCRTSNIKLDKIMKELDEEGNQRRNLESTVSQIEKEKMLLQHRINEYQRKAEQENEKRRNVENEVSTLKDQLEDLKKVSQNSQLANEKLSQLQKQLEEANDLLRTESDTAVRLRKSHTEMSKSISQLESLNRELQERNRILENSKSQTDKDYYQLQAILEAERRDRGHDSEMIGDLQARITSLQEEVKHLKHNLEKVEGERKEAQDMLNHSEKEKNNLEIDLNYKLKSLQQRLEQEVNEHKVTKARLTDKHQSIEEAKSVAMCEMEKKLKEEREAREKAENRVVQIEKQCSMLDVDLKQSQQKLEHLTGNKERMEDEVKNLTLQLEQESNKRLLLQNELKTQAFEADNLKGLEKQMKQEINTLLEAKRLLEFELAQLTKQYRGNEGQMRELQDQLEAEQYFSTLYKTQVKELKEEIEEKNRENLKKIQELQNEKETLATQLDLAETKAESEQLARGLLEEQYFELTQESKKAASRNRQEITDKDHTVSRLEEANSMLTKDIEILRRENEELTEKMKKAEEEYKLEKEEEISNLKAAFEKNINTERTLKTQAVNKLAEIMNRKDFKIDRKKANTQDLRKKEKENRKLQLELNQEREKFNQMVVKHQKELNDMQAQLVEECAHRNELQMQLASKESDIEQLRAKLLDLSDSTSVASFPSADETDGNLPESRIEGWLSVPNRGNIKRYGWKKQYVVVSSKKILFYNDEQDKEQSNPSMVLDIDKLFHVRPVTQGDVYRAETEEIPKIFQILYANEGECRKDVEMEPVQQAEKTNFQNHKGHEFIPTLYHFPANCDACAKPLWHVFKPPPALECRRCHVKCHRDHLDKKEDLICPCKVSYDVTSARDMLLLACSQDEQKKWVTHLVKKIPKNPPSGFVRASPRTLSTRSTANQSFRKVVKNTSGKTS

`COc1ccc2c(c1)CN(c1nccc(-c3nccc(C#Cc4ccncc4)n3)n1)C2` [Ex. 1, 5-Methoxy-2-(4-(pyridin-4-ylethynyl)-[2,4′-bipyrimidin]-2′-yl)isoindoline]: the dissociation constant (Kd) on ROCK2 and on ROCK1 was more than 30 µM throughout.
Consider `COc1ccc2c(c1)CN(c1nccc(-c3nccc(C#Cc4cn[nH]c4)n3)n1)C2` [Ex. 2, 2-(4-((1H-Pyrazol-4-yl)ethynyl)-[2,4′-bipyrimidin]-2′-yl)-5-methoxyisoindoline], for which the dissociation constant Kd at ROCK2 and at ROCK1 was more than 30 µM each time.
Turning to `COc1ccc2c(c1)CN(c1nccc(-c3nccc(C#Cc4ccc5[nH]ncc5c4)n3)n1)C2` [Ex. 3, 5-((2′-(5-Methoxyisoindolin-2-yl)-[2,4′-bipyrimidin]-4-yl)ethynyl)-1H-indazole], on ROCK2, the “ROCK 2 Selectivity” value is listed as 119 and the Kd (usually the free concentration of one partner at which half of the binding sites on the other are occupied at equilibrium, for simple one-to-one binding) is 0.0069 µM. At ROCK1, this molecule registered a Kd of 0.82 µM.
Consider `COc1ccc2c(c1)CN(c1nccc(-c3nccc(C#Cc4ccc5c(N)nccc5c4)n3)n1)C2` [Ex. 4, 6-((2′-(5-Methoxyisoindolin-2-yl)-[2,4′-bipyrimidin]-4-yl)ethynyl)isoquinolin-1-amine], for which, on ROCK2, the “ROCK 2 Selectivity” value was more than 3.66 and the Kd is 8.2 µM. The molecule also gave a Kd at ROCK1 of more than 30 µM.
The like results for `COc1ccc2c(c1)CN(c1nccc(-c3nccc(C#Cc4ccc5[nH]nc(F)c5c4)n3)n1)C2` [Ex. 5, 3-Fluoro-5-((2′-(5-methoxyisoindolin-2-yl)-[2,4′-bipyrimidin]-4-yl)ethynyl)-1H-indazole] were, in that order, more than 1500, 0.02 µM and more than 30 µM.
As for `COc1ccc2c(c1)CN(c1nccc(-c3nccc(C#Cc4cc(F)c5[nH]ncc5c4)n3)n1)C2` [Ex. 6, 7-Fluoro-5-((2′-(5-methoxyisoindolin-2-yl)-[2,4′-bipyrimidin]-4-yl)ethynyl)-1H-indazole], at ROCK2, the “ROCK 2 Selectivity” value is 2417 and the Kd was determined as 0.012 µM. Also, the dissociation constant Kd at ROCK1 was determined as 29 µM.
Consider `COc1ccc2c(c1)CN(c1nccc(-c3nccc(C#Cc4ccc5c(c4)CNC5=O)n3)n1)C2` [Ex. 7, 5-((2′-(5-Methoxyisoindolin-2-yl)-[2,4′-bipyrimidin]-4-yl)ethynyl)isoindolin-1-one], for which the Kd on ROCK2 and on ROCK1 was more than 30 µM in each case.
`COC(=O)c1ccc(C#Cc2ccnc(-c3ccnc(N4Cc5ccc(OC)cc5C4)n3)n2)cc1` [Ex. 8, Methyl 4-((2′-(5-methoxyisoindolin-2-yl)-[2,4′-bipyrimidin]-4-yl)ethynyl)benzoate]: the equilibrium dissociation constant (Kd) at ROCK2 and at ROCK1 was more than 30 µM in each case.
For the molecule `COc1ccc2c(c1)CN(c1nccc(-c3nccc(C#Cc4ccc(C#N)cc4)n3)n1)C2` [Ex. 9, 4-((2′-(5-Methoxyisoindolin-2-yl)-[2,4′-bipyrimidin]-4-yl)ethynyl)benzonitrile], the equilibrium dissociation constant (Kd) on ROCK2 and on ROCK1 was more than 30 µM in each case.
On to `COc1ccc2c(c1)CN(c1nccc(-c3nccc(C#Cc4ccc(C(=O)O)cc4)n3)n1)C2` [Ex. 10, 4-((2′-(5-Methoxyisoindolin-2-yl)-[2,4′-bipyrimidin]-4-yl)ethynyl)benzoic acid], for which the Kd at ROCK2 and at ROCK1 was more than 30 µM in each case.
Consider `CNC(=O)c1ccc(C#Cc2ccnc(-c3ccnc(N4Cc5ccc(OC)cc5C4)n3)n2)cc1` [Ex. 11, 4-((2′-(5-Methoxyisoindolin-2-yl)-[2,4′-bipyrimidin]-4-yl)ethynyl)-N-methylbenzamide], for which the Kd on ROCK2 and at ROCK1 was more than 30 µM each time.
`C(#Cc1ccnc(-c2ccnc(N3Cc4ccccc4C3)n2)n1)c1ccc2[nH]ncc2c1` [Ex. 12, 5-((2′-(Isoindolin-2-yl)-[2,4′-bipyrimidin]-4-yl)ethynyl)-1H-indazole]: at ROCK2, the “ROCK 2 Selectivity” value is 139 and the Kd is 0.0018 µM. The molecule further gave a Kd on ROCK1 of 0.25 µM.
Regarding `Fc1ccc2c(c1)CN(c1nccc(-c3nccc(C#Cc4ccc5[nH]ncc5c4)n3)n1)C2` [Ex. 13, 5-((2′-(5-Fluoroisoindolin-2-yl)-[2,4′-bipyrimidin]-4-yl)ethynyl)-1H-indazole], on ROCK2, the “ROCK 2 Selectivity” value is recorded as 1164 and the Kd came out at 0.0079 µM. The Kd at ROCK1 turned out to be 9.2 µM.
Consider `Fc1ccc2c(c1)CN(c1nccc(-c3nccc(C#Cc4cc(F)c5[nH]ncc5c4)n3)n1)C2` [Ex. 14, 7-Fluoro-5-((2′-(5-fluoroisoindolin-2-yl)-[2,4′-bipyrimidin]-4-yl)ethynyl)-1H-indazole], for which, on ROCK2, the “ROCK 2 Selectivity” value is recorded as more than 1071 and the Kd turned out to be 0.028 µM. The molecule also displayed a Kd on ROCK1 of more than 30 µM.
For the molecule `COc1cc2c(cn1)CN(c1nccc(-c3nccc(C#Cc4ccc5[nH]ncc5c4)n3)n1)C2` [Ex. 15, 5-((2′-(6-Methoxy-1,3-dihydro-2H-pyrrolo[3,4-c]pyridin-2-yl)-[2,4′-bipyrimidin]-4-yl)ethynyl)-1H-indazole], at ROCK2, the “ROCK 2 Selectivity” value was more than 35 and the Kd was 0.17 µM. The same molecule gave a Kd at ROCK1 of more than 6 µM.
The like results for `Oc1cc2c(cn1)CN(c1nccc(-c3nccc(C#Cc4ccc5[nH]ncc5c4)n3)n1)C2` [Ex. 16, 2-(4-((1H-Indazol-5-yl)ethynyl)-[2,4′-bipyrimidin]-2′-yl)-2,3-dihydro-1H-pyrrolo[3,4-c]pyridin-6-ol] were, in that order, more than 23, 0.26 µM and more than 6 µM.
On to `Clc1cc2c(cn1)CN(c1nccc(-c3nccc(C#Cc4ccc5[nH]ncc5c4)n3)n1)C2` [Ex. 17, 5-((2′-(6-Chloro-1,3-dihydro-2H-pyrrolo[3,4-c]pyridin-2-yl)-[2,4′-bipyrimidin]-4-yl)ethynyl)-1H-indazole], for which, on ROCK2, the “ROCK 2 Selectivity” value is listed as more than 122. Further, the values for the Kd at ROCK2 and on ROCK1 were 0.049 µM and more than 6 µM, respectively.
For the molecule `COc1ccc2c(c1)CN(c1nccc(-c3cccc(C#Cc4ccc5[nH]ncc5c4)n3)n1)C2` [Ex. 18, 5-((6-(2-(5-Methoxyisoindolin-2-yl)pyrimidin-4-yl)pyridin-2-yl)ethynyl)-1H-indazole], the Kd turned out to be 0.12 µM at ROCK2 and 25 µM at ROCK1.
In the case of `COc1ccc2c(c1)CN(c1nccc(-c3cccc(C#Cc4cc(F)c5[nH]ncc5c4)n3)n1)C2` [Ex. 19, 7-Fluoro-5-((6-(2-(5-methoxyisoindolin-2-yl)pyrimidin-4-yl)pyridin-2-yl)ethynyl)-1H-indazole], on ROCK2, the negative logarithm of the Kd (pKd) – broadly, the negative decadic logarithm of the Kd, by convention in mol/L – was 5.55 and the “ROCK 2 Selectivity” value was more than 10.7. This molecule also registered a Kd at ROCK1 of more than 30 µM.
With `Fc1ccc2c(c1)CN(c1nccc(-c3cccc(C#Cc4ccc5[nH]ncc5c4)n3)n1)C2` [Ex. 20, 5-((6-(2-(5-Fluoroisoindolin-2-yl)pyrimidin-4-yl)pyridin-2-yl)ethynyl)-1H-indazole], on ROCK2, the “ROCK 2 Selectivity” value was more than 5.4 and the Kd was 5.5 µM. For the same molecule, the Kd on ROCK1 was more than 30 µM.
Turning to `Fc1ccc2c(c1)CN(c1nccc(-c3cccc(C#Cc4cc(F)c5[nH]ncc5c4)n3)n1)C2` [Ex. 21, 7-Fluoro-5-((6-(2-(5-fluoroisoindolin-2-yl)pyrimidin-4-yl)pyridin-2-yl)ethynyl)-1H-indazole], at ROCK2, the pKd was 5.17 and the “ROCK 2 Selectivity” value was more than 4.4. This molecule also displayed a Kd on ROCK1 of more than 30 µM.
Consider `CN(C)CCOc1ccc2c(c1)CN(c1nccc(-c3cccc(C#Cc4ccc5[nH]ncc5c4)n3)n1)C2` [Ex. 22, 2-((2-(4-(6-((1H-Indazol-5-yl)ethynyl)pyridin-2-yl)pyrimidin-2-yl)isoindolin-5-yl)oxy)-N,N-dimethylethanamine], for which the “ROCK 2 Selectivity” value at ROCK2 was more than 20. For the same molecule, the Kd on ROCK2 is 1.5 µM; on ROCK1, more than 30 µM.
